Where “and” joins values, the source holds several entries; their conditions need not be identical. Equal values may be shown once. Read-outs that look alike come from different tables or passages of the source.
Assays:
[1] = target: T1, dDATfc (Drosophila melanogaster dopamine transporter functional construct) (Drosophila melanogaster, UniProt Q7K4Y6, DEL164-191/F471L/L415A/V74A); assay: cell-based; conditions: for inhibition at 10 µM: Log[compound] M = -5
T1 construct: expressed in transfected cells; host or cells: HEK293S GnTI- cells, transient transfection with pEG-BacMam plasmid
Protocol: (§1) Additional mutations in the subsite B or subsite C were incorporated into this gene used for carrying out the uptake assays.
(§2) Cells were transiently transfected with pEG-BacMam plasmid harboring the dDAT cGFP gene and incubated for 35–40 hrs at 37 °C with 5% CO2 and 80% humidity. […] The transport activity was arrested with 0.5 ml of pre-chilled assay buffer containing 100 μM desipramine (Sigma Aldrich) added to each reaction. The cells were then washed twice with the same buffer before solubilizing them in 0.1 ml of 20 mM DDM for one hour at room temperature. […] Following this, 0.1 ml of the supernatant was added to 0.5 ml of scintillation fluid (Ultima Gold, Perkin Elmer) and the radioactivity was estimated on MicroBeta scintillation counter (Perkin Elmer). […] The background-subtracted, dose–response plots were analyzed using GraphPad Prism v.5.0.1 and Ki values were determined from Cheng–Prusoff’s equation using the IC50 values obtained from the experiments.

[2] = tested on: hDAT; conditions: read-out: KM of transport by hDAT; cited from earlier work
[3] = tested on: hNET; conditions: read-out: KM of transport by hNET; cited from earlier work
[4] = target: T2, dDATmfc (Drosophila melanogaster, UniProt Q7K4Y6, DEL162-202/F471L/L415A/V74A); assay: biochemical; conditions: read-out: Percent binding
T2 construct: GFP-8x-His (C); made in house; host or cells: HEK293S GnTI- cells, BacMam baculovirus transduction
Protocol: (§3) Binding assays were performed with 20 nM of purified dDAT protein by scintillation proximity assay. For determining nisoxetine Kd, [^3H] Nisoxetine (Perkin Elmer) (in 1:5 molar ratio) was used in the range of 0.1 nM to 500 nM with 100 µM desipramine added to the control samples. Competition assays were done with 50 nM [^3H] […] The assays were done in 1 mM DDM, 0.2 mM CHS, 20 mM Tris-Cl (pH 8), 300 mM NaCl and 5% glycerol. The background values were subtracted to plot the final curves in GraphPad prism v5.0.1 and the Kd values were calculated. The IC50 values obtained from binding competition assays were used to deduce the Ki values by Cheng–Prusoff’s equation.

[5] = tested on: hNET; conditions: cited from earlier work
[6] = target: T3, dDATfc A117S/A428S (Drosophila melanogaster, UniProt Q7K4Y6, A117S/A428S/DEL164-191/F471L/L415A/V74A); assay: cell-based; type: cell-based
T3 construct: expressed in transfected cells; host or cells: HEK293S GnTI- cells, transient transfection with pEG-BacMam plasmid
Protocol: (§4) Earlier studies have posited that non-conserved residues in the primary binding site are responsible for selective inhibition of biogenic amine uptake[57],[58]. […] Effects of these mutations were analyzed through uptake inhibition using the three SNRIs employed in this study (Fig. 6a–c). […] Supplementary Table 2)[56],[59].
as §1, §2

[7] = target: T4, dDATNET (Drosophila melanogaster, UniProt Q7K4Y6, D121G/DEL162-202/F471L/L415A/S426M/V74A); assay: biochemical; type: binding
T4 construct: GFP-8x-His (C); made in house; host or cells: HEK293S GnTI- cells, BacMam baculovirus transduction
Protocol: as §3

[8] = target: T5, dDATfc A117S (Drosophila melanogaster, UniProt Q7K4Y6, A117S/DEL164-191/F471L/L415A/V74A); assay: cell-based
T5 construct: expressed in transfected cells; host or cells: HEK293S GnTI- cells, transient transfection with pEG-BacMam plasmid
Protocol: as §4, §1, §2

[9] = target: T6, dDATfc A428S (Drosophila melanogaster, UniProt Q7K4Y6, A428S/DEL164-191/F471L/L415A/V74A); assay: cell-based
T6 construct: expressed in transfected cells; host or cells: HEK293S GnTI- cells, transient transfection with pEG-BacMam plasmid
Protocol: as §4, §1, §2

[10] = target: hDAT; conditions: read-out: Uptake Inhibition Ki, hDAT; ref 3 (Supplementary: Bymaster et al., 2003); cited from earlier work
[11] = target: hDAT; design: method as in earlier work; conditions: vs. RTI-55; ref 4 (Supplementary: Vaishnavi et al., 2004); read-out: Binding Inhibition (Ki), hDAT; cited from earlier work
[12] = HEK293S, 0.5 h, read-out: Percent inhibition of DA uptake, dDATfc, single replicates
[13] = HEK293S, 0.5 h, read-out: Percent inhibition of DA uptake
[14] = 0.5 h, read-out: Percent inhibition of DA uptake

## NCC(O)c1ccc(O)c(O)c1 [NE, L-norepinephrine]
[1]; HEK293S, 0.5 h, read-out: Percent inhibition of DA uptake, dDATfc, Log[compound] M = -2.52288, single replicates
  inhibition at 3000 µM: 2.69%
[1]; HEK293S, 0.5 h, read-out: Percent inhibition of DA uptake, dDATfc, Log[compound] M = -4, single replicates
  inhibition at 100 µM: 29.3%
[1]; [12]
  inhibition at 10 µM: 64.5%
[1]; HEK293S, 0.5 h, read-out: Percent inhibition of DA uptake, dDATfc, Log[compound] M = -6, single replicates
  inhibition at 1 µM: 92.2%
[1]; Ki, inhibition of [3H] dopamine uptake
  Ki: 19.1 µM and 19 µM
[2]
  Km: 20 µM
[3]
  Km: 2.6 µM

## COc1cccc(C2(O)CCCCC2CN(C)C)c1 (stereo not shown) [Tramadol, tramadol]
[1]
  IC50: 24.7 ± 2.8 µM
  Ki: 15.9 ± 1.8 µM
[1]; [13]
  inhibition at 30 µM: 38.5%
[4]; DATmfc, Log Tramadol (M) -3, replicate values
  remaining activity at 1000 µM: 6.84%
[4]; DATmfc, Log Tramadol (M) -4, replicate values
  remaining activity at 100 µM: 23.9%
[4]; DATmfc, Log Tramadol (M) -5, replicate values
  remaining activity at 10 µM: 74.2%
[4]; DATmfc, Log Tramadol (M) -6, replicate values
  remaining activity at 1 µM: 91.4%
[4]
  remaining activity at 3 µM: 91%
  remaining activity at 30 µM: 44%
[5]; NET over DAT
  greater affinity to NET over DAT: ~ 50 fold
[6]
  IC50: 130 ± 12.2 µM
[6]; 0.5 h, read-out: Percent inhibition of DA uptake, A117S_A428S, Log[compound] M = -4, single replicates
  inhibition at 100 µM: 48.1%
[7]; Binding Ki with dDATNET (vs. Nisoxetine)
  Ki: 5.31 µM and 5.3 µM
[7]; DAT NET, Log Tramadol (M) -4, replicate values, read-out: Percent binding
  remaining activity at 100 µM: 43.3%
[7]; read-out: Percent binding
  remaining activity at 30 µM: 60%
  remaining activity at 300 µM: 17.9%
  remaining activity at 3000 µM: 4.79%
[8]
  IC50: 35.8 ± 2.2 µM
[8]; 0.5 h, A117S, Log[compound] M = -4, single replicates, read-out: Percent inhibition of DA uptake
  inhibition at 100 µM: 29.4%
[8]; 0.5 h, A117S, Log[compound] M = -6, single replicates, read-out: Percent inhibition of DA uptake
  inhibition at 1 µM: 105%
[8]; [14]
  inhibition at 3 µM: 105%
  inhibition at 30 µM: 61.3%
  inhibition at 300 µM: 13.1%
  inhibition at 3000 µM: 3.78%
[9]
  IC50: 50.5 ± 5.4 µM
[9]; 0.5 h, A428S, Log[compound] M = -4, single replicates, read-out: Percent inhibition of DA uptake
  inhibition at 100 µM: 32.2%
[9]; 0.5 h, A428S, Log[compound] M = -6, single replicates, read-out: Percent inhibition of DA uptake
  inhibition at 1 µM: 92.4%
[9]; [14]
  inhibition at 300 µM: 11.6%

## CNCC[C@H](Oc1cccc2ccccc12)c1cccs1 [Dulox]
[7]; read-out: Percent binding
  remaining activity at 0.03 µM: 86.3%
  remaining activity at 0.1 µM: 57.8%
  remaining activity at 0.3 µM: 34.1%
  remaining activity at 1 µM: 18.4%

## NCCc1ccc(O)c(O)c1 [DA, dopamine]
[1]; HEK293S, 0.5 h, read-out: Percent inhibition of DA uptake, dDATfc, Log[compound] M = -4.52288, single replicates
  inhibition at 30 µM: 8.62%
[1]; [12]
  inhibition at 10 µM: 20%
[1]; HEK293S, 0.5 h, read-out: Percent inhibition of DA uptake, dDATfc, Log[compound] M = -5.52288, single replicates
  inhibition at 3 µM: 56.5%
[1]; HEK293S, 0.5 h, read-out: Percent inhibition of DA uptake, dDATfc, Log[compound] M = -7, single replicates
  inhibition at 0.1 µM: 91.1%
[1]; HEK293S, 0.5 h, read-out: Percent inhibition of DA uptake, dDATfc, Log[compound] M = -7.52288, single replicates
  inhibition at 0.03 µM: 92.7%
[2]
  Km: 2.54 µM
[3]
  Km: 0.67 µM

## CNCC[C@H](Oc1cccc2ccccc12)c1cccs1 [S-duloxetine]
[10]
  Ki: 0.37 µM
[1]; [13]
  inhibition at 0.001 µM: 96.4%
  inhibition at 0.003 µM: 88.9%
  inhibition at 0.01 µM: 85.9%
  inhibition at 0.03 µM: 77.7%
  inhibition at 0.1 µM: 45%
  inhibition at 0.3 µM: 21.9%
[4]
  remaining activity at 0.003 µM: 86.1%
  remaining activity at 0.1 µM: 22.9%
[6]; 0.5 h, read-out: Percent inhibition of DA uptake, A117S_A428S, Log[compound] M = -6, single replicates
  inhibition at 1 µM: 11.2%
[6]; 0.5 h, read-out: Percent inhibition of DA uptake, A117S_A428S, Log[compound] M = -6.52288, single replicates
  inhibition at 0.3 µM: 44%
[6]; 0.5 h, read-out: Percent inhibition of DA uptake, A117S_A428S, Log[compound] M = -7, single replicates
  inhibition at 0.1 µM: 76.7%
[6]; 0.5 h, read-out: Percent inhibition of DA uptake, A117S_A428S, Log[compound] M = -9, single replicates
  inhibition at 0.001 µM: 97.8%
[6]; double mutant vs dDATfc
  increase in IC50 values, combination of A428S and A117S: ~ 3 fold
[8]; [14]
  inhibition at 0.03 µM: 96.1%
[9]; [14]
  inhibition at 0.03 µM: 94.4%
  inhibition at 0.1 µM: 80.2%
  inhibition at 0.3 µM: 45.5%
  inhibition at 1 µM: 9.62%
[11]
  Ki: 0.23 ± 0.017 µM

## CN(C)C[C@H]1CCCC[C@]1(O)c1cccc(O)c1 [desmetramadol, O-desmethyl tramadol]
[5]; read-out: IC50, inhibition of hNET
  IC50: 6 µM

Source: publication PMC8044178, “Structural basis of norepinephrine recognition and transport inhibition in neurotransmitter transporters” (Nature Communications, 2021)
